Values of other authors in patent publication US20050096390A1 (priority 2003, published 2005).

What was measured:
[1] = pH of 7.0
[2] = 160 mg fenofibrate tablets, typical average blood plasma sample

For `CC[C@H](C)C(=O)O[C@H]1C[C@H](O)C=C2C=C[C@H](C)[C@H](CC[C@@H](O)C[C@@H](O)CC(=O)O)[C@H]21` [Pravastatin], the solubility in water is listed as “sparingly soluble”.
In the case of `CC[C@H](C)C(=O)O[C@H]1C[C@H](O)C=C2C=C[C@H](C)[C@H](CC[C@@H](O)C[C@@H](O)CC(=O)[O-])[C@H]21.[Na+]` (relative stereo) [Pravastatin sodium, 1-naphthalene-heptanoic acid, 1,2,6,7,8,8a-hexahydro-(beta),(beta),6-trihydroxy-2-methyl-8-(2-methyl-1-oxobutoxy)-, monosodium salt, [1S-[1(alpha)((beta)S*,(beta)S*),2(alpha),6(alpha), 8(beta)(R*),8a(alpha)]]-], the “partition coefficient (octanol/water)” value [1] is given as 0.59, the “solubility in acetone, acetonitrile, chloroform, and ether” value (acetone, acetonitrile, chloroform, ether) is given as “practically insoluble” and the solubility in isopropanol (isopropanol) is given as “slightly soluble”. For the same compound, the solubility in methanol (methanol) was greater than 300 mg/mL and the solubility in water was greater than 300 mg/mL.
In the case of `CC(C)OC(=O)C(C)(C)Oc1ccc(C(=O)c2ccc(Cl)cc2)cc1` [Fenofibrate], the AUC0-24 of fenofibrate [2] is given as “about 118,300 h·ng/mL”.
